target: T1, human cGAS (residues 161-522) (Homo sapiens, UniProt Q8N884); assay: cGAS Activity Assay—Malachite Green; assay type: biochemical; details: recombinant purified human cGAS 25 nM; 80 μM ATP, 80 μM GTP, 100 nM ISD; 4 hour at RT; phosphate detection by Malachite Green
T1 construct: human cGAS (residues 161-522); made in house
Method in brief: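 Human cGAS (161-522, 25 nM) in 20 mM TRIS pH 7.5, 5 mM MgCl2, 0.01% BSA with 80 μM ATP, 80 μM GTP and 100 nM ISD DNA, 4 h at RT. Pyrophosphate converted by PPase, phosphate read with Malachite Green at 620 nm; IC50 from 4-parameter fit of 16-point series.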

T1 sequence (Q8N884 161-522): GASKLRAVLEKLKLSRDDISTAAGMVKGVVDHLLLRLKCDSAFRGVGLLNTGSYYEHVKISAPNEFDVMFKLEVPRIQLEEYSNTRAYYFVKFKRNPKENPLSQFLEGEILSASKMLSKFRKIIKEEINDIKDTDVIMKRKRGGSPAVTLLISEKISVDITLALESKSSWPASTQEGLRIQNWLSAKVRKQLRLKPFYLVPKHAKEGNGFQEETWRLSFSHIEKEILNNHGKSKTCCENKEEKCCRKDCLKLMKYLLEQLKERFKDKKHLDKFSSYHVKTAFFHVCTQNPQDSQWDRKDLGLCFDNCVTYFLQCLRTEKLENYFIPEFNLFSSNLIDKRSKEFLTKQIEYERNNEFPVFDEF

SMILES | IC50 [nM]
Cc1oncc1/C(O)=C(\C#N)C(=O)Nc1ncc(C(=O)N(C)Cc2ccccc2)cn1 [Example 100, N-benzyl-2-[[(Z)-2-cyano-3-hydroxy-3-(5-methylisoxazol-4-yl)prop-enoyl]amino]-N-methyl-2-pyrimidine-5-carboxamide] | 70
Cc1oncc1/C(O)=C(\C#N)C(=O)Nc1nccc(OCCF)n1 [Example 101, (Z)-2-cyano-N-(4-(2-fluoroethoxy)pyrimidin-2-yl)-3-hydroxy-3-(5-methylisoxazol-4-yl)acrylamide] | 120
Cc1oncc1/C(O)=C(\C#N)C(=O)Nc1ncc(CCc2ccccc2)cn1 [Example 102, (Z)-2-cyano-3-hydroxy-3-(5-methylisoxazol-4-yl)-N-(5-phenethylpyrimidin-2-yl)acrylamide] | 150
CCS(=O)(=O)c1cnc(NC(=O)/C(C#N)=C(\O)c2cnoc2C)nc1 [Example 103, (Z)-2-cyano-N-(5-(ethylsulfonyl)pyrimidin-2-yl)-3-hydroxy-3-(5-methylisoxazol-4-yl)acrylamide] | 40
Cc1oncc1/C(O)=C(\C#N)C(=O)Nc1ccc(C(C)(C)c2ccccc2)cc1 [Example 104, (Z)-2-cyano-3-hydroxy-3-(5-methylisoxazol-4-yl)-N-(4-(2-phenylpropan-2-yl)phenyl)acrylamide] | 3110
Cc1oncc1/C(O)=C(\C#N)C(=O)Nc1ncc(C(=O)Nc2ccccc2)cn1 [Example 105, 2-[[(Z)-2-cyano-3-hydroxy-3-(5-methylisoxazol-4-yl)prop-2-enoyl]amino]-N-phenyl-pyrimidin-5-carboxamide] | 150
Cc1oncc1/C(O)=C(\C#N)C(=O)Nc1ncc(C(=O)NCc2ccccc2)cn1 [Example 106, N-benzyl-2-[[(Z)-2-cyano-3-hydroxy-3-(5-methylisoxazol-4-yl)prop-2-enoyl]amino]pyrimidine-5-carboxamide] | 50
Cc1oncc1/C(O)=C(\C#N)C(=O)Nc1ncc(Br)cn1 [Example 107, (Z)-N-(5-bromopyrimidin-2-yl)-2-cyano-3-hydroxy-3-(5-methylisoxazol-4-yl)acrylamide] | 60
Cc1oncc1/C(O)=C(\C#N)C(=O)Nc1nc(Cl)c(-c2ccccc2)c(NS(=O)(=O)c2ccc(Cl)cc2)n1 [Example 108, (Z)-N-(4-chloro-6-((4-chlorophenyl)sulfonamido)-5-phenylpyrimidin-2-yl)-2-cyano-3-hydroxy-3-(5-methylisoxazol-4-yl)acrylamide] | 5010
Cc1oncc1/C(O)=C(\C#N)C(=O)Nc1ccc(S(=O)(=O)Cc2ccccc2Cl)cn1 [Example 109, (Z)—N-(5-((2-chlorobenzyl)sulfonyl)pyridin-2-yl)-2-cyano-3-hydroxy-3-(5-methylisoxazol-4-yl)acrylamide] | 720
COCCS(=O)(=O)c1cnc(NC(=O)/C(C#N)=C(\O)c2cnoc2C)nc1 [Example 110, (Z)-2-cyano-3-hydroxy-N-(5-((2-methoxyethyl)sulfonyl)pyrimidin-2-yl)-3-(5-methylisoxazol-4-yl)acrylamide] | 60
Cc1oncc1/C(O)=C(\C#N)C(=O)Nc1ncc(S(=O)(=O)c2ccccc2)cn1 [Example 111, (Z)-N-[5-(benzenesulfonyl)pyrimidin-2-yl]-2-cyano-3-hydroxy-3-(5-methylisoxazol-4-yl)prop-2-enamide] | 20
Cc1oncc1/C(O)=C(\C#N)C(=O)Nc1ncc([S+]([O-])c2ccccc2)cn1 (stereo not shown) [Example 112, (Z)-N-[5-(benzenesulfinyl)pyrimidin-2-yl]-2-cyano-3-hydroxy-3-(5-methylisoxazol-4-yl)prop-2-enamide] | 20
Cc1oncc1/C(O)=C(\C#N)C(=O)Nc1ccc(S(C)(=N)=O)cc1 (stereo not shown) [Example 113, (Z)-2-Cyano-3-hydroxy-3-(5-methylisoxazol-4-yl)-N-(4-(S-methylsulfonimidoyl)phenyl)acrylamide] | 330
Cc1oncc1/C(O)=C(\C#N)C(=O)Nc1ccc(S(=N)(=O)c2ccccc2)cc1 (stereo not shown) [Example 114, (Z)-2-cyano-3-hydroxy-3-(5-methylisoxazol-4-yl)-N-(4-(phenylsulfonimidoyl)phenyl)acrylamide] | 120
Cc1oncc1/C(O)=C(\C#N)C(=O)Nc1ccc(S(C)(=O)=O)cc1 [Example 115, (Z)-2-cyano-3-hydroxy-3-(5-methylisoxazol-4-yl)-N-(4-methylsulfonylphenyl) prop-2-enamide] | 180
Cc1oncc1/C(O)=C(\C#N)C(=O)Nc1ccc([S+](C)[O-])cc1 (stereo not shown) [Example 116, (Z)-2-cyano-3-hydroxy-3-(5-methylisoxazol-4-yl)-N-(4-methylsulfinylphenyl) prop-2-enamide] | 380

SMILES | IC50 [nM]
COCCN(C)S(=O)(=O)c1cnc(NC(=O)/C(C#N)=C(\O)c2cnoc2C)nc1 [Example 117, (Z)-2-Cyano-3-hydroxy-N-(5-(N-(2-methoxyethyl)-N-methylsulfamoyl)pyrimidin-2-yl)-3-(5-methylisoxazol-4-yl)acrylamide] | 50
COCCNS(=O)(=O)c1cnc(NC(=O)/C(C#N)=C(\O)c2cnoc2C)nc1 [Example 118, (Z)-2-cyano-3-hydroxy-N-(5-(N-(2-methoxy-ethyl)sulfamoyl)pyrimidin-2-yl)-3-(5-methylisoxazol-4-yl)acrylamide] | 40
COCCN(C)S(=O)(=O)c1ccc(NC(=O)/C(C#N)=C(\O)c2cnoc2C)cc1 [Example 119, (Z)-2-Cyano-3-hydroxy-N-(4-(N-(2-methoxyethyl)-N-methylsulfamoyl)phenyl)-3-(5-methylisoxazol-4-yl)acrylamide] | 170
Cc1oncc1/C(O)=C(\C#N)C(=O)Nc1ccc(S(=O)(=O)N(C)CCN(C)C)cc1 [Example 120, (Z)-2-cyano-N-(4-(N-(2-(dimethylamino)ethyl)-N-methylsulfamoyl)phenyl)-3-hydroxy-3-(5-methylisoxazol-4-yl)acrylamide] | 670
Cc1oncc1/C(O)=C(\C#N)C(=O)Nc1ccc(S(=O)(=O)c2ccc(C#N)cc2)cc1 [Example 121, (Z)-2-Cyano-N-(4-((4-cyanophenyl)sulfonyl)phenyl)-3-hydroxy-3-(5-methylisoxazol-4-yl)acrylamide] | 380
Cc1oncc1/C(O)=C(\C#N)C(=O)Nc1ccc(S(=O)(=O)c2ccccc2C#N)cc1 [Example 122, (Z)-2-cyano-N-(4-((2-cyanophenyl)sulfonyl)phenyl)-3-hydroxy-3-(5-methylisoxazol-4-yl)acrylamide] | 130
Cc1oncc1/C(O)=C(\C#N)C(=O)Nc1ccc(S(=O)(=O)c2cccnc2)cc1 [Example 123, (Z)-2-cyano-3-hydroxy-3-(5-methylisoxazol-4-yl)-N-(4-(pyridin-3-ylsulfonyl)phenyl) acrylamide] | 210
COc1cnc(NC(=O)/C(C#N)=C(\O)c2cnoc2C)nc1-c1ccccc1 [Example 124, (Z)-2-cyano-3-hydroxy-N-(5-methoxy-4-phenylpyrimidin-2-yl)-3-(5-methylisoxazol-4-yl)acrylamide] | 170
Cc1oncc1/C(O)=C(\C#N)C(=O)Nc1ncc(OCC2CC2)c(-c2ccc(Cl)cc2)n1 [Example 125, (Z)-N-(4-(4-chlorophenyl)-5-(cyclopropylmethoxy)pyrimidin-2-yl)-2-cyano-3-hydroxy-3-(5-methylisoxazol-4-yl)acrylamide] | 2910
COCCOc1cnc(NC(=O)/C(C#N)=C(\O)c2cnoc2C)nc1-c1ccccc1 [Example 126, (Z)-2-cyano-3-hydroxy-N-(5-(2-methoxyethoxy)-4-phenylpyrimidin-2-yl)-3-(5-methylisoxazol-4-yl)acrylamide] | 420
Cc1oncc1/C(O)=C(\C#N)C(=O)Nc1ncc(OCC(F)(F)F)c(-c2ccc(Cl)cc2)n1 [Example 127, (Z)-N-(4-(4-chlorophenyl)-5-(2,2,2-trifluoroethoxy)pyrimidin-2-yl)-2-cyano-3-hydroxy-3-(5-methylisoxazol-4-yl)acrylamide] | 2340
COCCOc1cnc(NC(=O)/C(C#N)=C(\O)c2cnoc2C)nc1CCc1ccccc1 [Example 128, (Z)-2-cyano-3-hydroxy-N-(5-(2-methoxyethoxy)-4-phenethylpyrimidin-2-yl)-3-(5-methylisoxazol-4-yl)acrylamide] | 370
COc1cnc(NC(=O)/C(C#N)=C(\O)c2cnoc2C)nc1CCc1ccccc1 [Example 129, (Z)-2-cyano-3-hydroxy-N-(5-methoxy-4-phenethylpyrimidin-2-yl)-3-(5-methylisoxazol-4-yl)acrylamide] | 520
COc1ccc(CCc2cnc(NC(=O)/C(C#N)=C(\O)c3cnoc3C)nc2C(F)(F)F)cn1 [Example 130, (Z)-2-cyano-3-hydroxy-N-(5-(2-(6-methoxypyridin-3-yl)ethyl)-4-(trifluoromethyl)pyrimidin-2-yl)-3-(5-methylisoxazol-4-yl)acrylamide] | 1220
Cc1oncc1/C(O)=C(\C#N)C(=O)Nc1ncc(CCc2ccccc2)c(C(F)(F)F)n1 [Example 131, (Z)-2-cyano-3-hydroxy-3-(5-methylisoxazol-4-yl)-N-(5-phenethyl-4-(trifluoromethyl)pyrimidin-2-yl)acrylamide] | 2180
Cc1oncc1/C(O)=C(\C#N)C(=O)Nc1ncc(C(=O)N(C)Cc2ccccc2)c(-c2ccccc2)n1 [Example 132, (Z)—N-Benzyl-2-(2-cyano-3-hydroxy-3-(5-methylisoxazol-4-yl)acrylamido)-N-methyl-4-phenylpyrimidine-5-carboxamide] | 190
Cc1oncc1/C(O)=C(\C#N)C(=O)Nc1ncc(C(=O)N(C)Cc2ccccc2)c(CCc2ccccc2)n1 [Example 133, (Z)-N-benzyl-2-(2-cyano-3-hydroxy-3-(5-methylisoxazol-4-yl)acrylamido)-N-methyl-4-phenethylpyrimidine-5-carboxamide] | 1330

Reference: patent US20230242494A1, “MALONITRILE DERIVATIVES” (Hoffmann-La Roche Inc., priority 2020, published 2023)
